Measurements reported in ChEMBL document CHEMBL2375265, “Novel oleanolic vinyl boronates: synthesis and antitumor activity” (Eur J Med Chem, 2013).
Active and inactive are the calls of the source. The rule behind the calls is not given here. Peptide text beside a SMILES is read from it. * marks the point of attachment. Cbz = O=C(OCc1ccccc1)*

How the values were obtained:
[1] = Cytotoxicity against human fibroblasts assessed as growth inhibition after 48 hrs by MTT assay; assay type: cell-based; conditions: Fibroblast
SW480 = assay: Cytotoxicity against human SW480 cells assessed as growth inhibition after 48 hrs by MTT assay; assay type: functional, cell-based; conditions: SW480, 48 h
SK-OV-3 = assay: Cytotoxicity against human SKOV3 cells assessed as growth inhibition after 48 hrs by MTT assay; assay type: functional, cell-based; conditions: SK-OV-3, 48 h
HeLa = assay: Cytotoxicity against human HeLa cells assessed as growth inhibition after 48 hrs by MTT assay; assay type: functional, cell-based
JIYOYE = assay: Cytotoxicity against human Jijoye cells assessed as growth inhibition after 48 hrs by MTT assay; assay type: functional, cell-based
K562 = assay: Cytotoxicity against human K562 cells assessed as growth inhibition after 48 hrs by MTT assay; assay type: functional, cell-based; conditions: K562, 48 h
Jurkat [2] = assay: Cytotoxicity against human Jurkat cells assessed as growth inhibition after 48 hrs by MTT assay; assay type: functional, cell-based
Jurkat [3] = assay: Inhibition of trypsin-like activity of proteasome isolated from human Jurkat cells using Boc-LRR-AMC as substrate assessed as residual activity at 10 uM incubated for 30 mins followed by substrate addition measured for 2 hrs by fluorescence assay relative to control; assay type: cell-free
Jurkat [4] = assay: Inhibition of chymotrypsin-like activity of proteasome isolated from human Jurkat cells using Suc-LLVY-AMC as substrate assessed as residual activity at 10 uM incubated for 30 mins followed by substrate addition measured for 2 hrs by fluorescence assay relative to control; assay type: cell-free
Jurkat [5] = assay: Inhibition of proteasome in human Jurkat cells assessed as accumulation of ubiquitinated protein at 50 uM by Western blot analysis; assay type: cell-based
Jurkat [6] = assay: Inhibition of trypsin-like activity of proteasome in human Jurkat cells at 50 uM after 30 mins by fluorescence assay; assay type: cell-based
Jurkat [7] = assay: Inhibition of chymotrypsin-like activity of proteasome in human Jurkat cells assessed as residual activity at 50 uM after 30 mins by fluorescence assay relative to control; assay type: cell-based
Jurkat [8] = assay: Inhibition of trypsin-like activity of proteasome isolated from human Jurkat cells using Boc-LRR-AMC as substrate assessed as residual activity at 100 uM incubated for 30 mins followed by substrate addition measured for 2 hrs by fluorescence assay relative to control; assay type: cell-free
Jurkat [9] = assay: Inhibition of trypsin-like activity of proteasome isolated from human Jurkat cells using Boc-LRR-AMC as substrate assessed as residual activity at 50 uM incubated for 30 mins followed by substrate addition measured for 2 hrs by fluorescence assay relative to control; assay type: cell-free
Jurkat [10] = assay: Inhibition of trypsin-like activity of proteasome isolated from human Jurkat cells using Boc-LRR-AMC as substrate assessed as residual activity at 25 uM incubated for 30 mins followed by substrate addition measured for 2 hrs by fluorescence assay relative to control; assay type: cell-free
Jurkat [11] = assay: Inhibition of chymotrypsin-like activity of proteasome isolated from human Jurkat cells using Suc-LLVY-AMC as substrate assessed as residual activity at 100 uM incubated for 30 mins followed by substrate addition measured for 2 hrs by fluorescence assay relative to control; assay type: cell-free
Jurkat [12] = assay: Inhibition of chymotrypsin-like activity of proteasome isolated from human Jurkat cells using Suc-LLVY-AMC as substrate assessed as residual activity at 50 uM incubated for 30 mins followed by substrate addition measured for 2 hrs by fluorescence assay relative to control; assay type: cell-free
Jurkat [13] = assay: Inhibition of chymotrypsin-like activity of proteasome isolated from human Jurkat cells using Suc-LLVY-AMC as substrate assessed as residual activity at 25 uM incubated for 30 mins followed by substrate addition measured for 2 hrs by fluorescence assay relative to control; assay type: cell-free
Jurkat [14] = assay: Induction of apoptosis in human Jurkat cells assessed as dead cells at 20 uM by propidium iodide/annexin V staining-based FACS flow cytometric analysis (reference value: 0.66%); assay type: functional
Jurkat [15] = assay: Induction of apoptosis in human Jurkat cells assessed as late apoptotic cells at 20 uM by propidium iodide/annexin V staining-based FACS flow cytometric analysis (reference value: 0.37%); assay type: functional
Jurkat [16] = assay: Induction of apoptosis in human Jurkat cells assessed as early apoptotic cells at 20 uM by propidium iodide/annexin V staining-based FACS flow cytometric analysis (reference value: 1.87%); assay type: functional
Jurkat [17] = assay: Cell cycle arrest in human Jurkat cells assessed as accumulation at sub G0/G1 phase at 20 uM by propidium iodide staining-based FACS flow cytometric analysis (reference value: 4.81%); assay type: functional
Jurkat [18] = assay: Cell cycle arrest in human Jurkat cells assessed as accumulation at G2/M phase at 20 uM by propidium iodide staining-based FACS flow cytometric analysis (reference value: 16.63%); assay type: functional
Jurkat [19] = assay: Cell cycle arrest in human Jurkat cells assessed as accumulation at S phase at 20 uM by propidium iodide staining-based FACS flow cytometric analysis (reference value: 26.91%); assay type: functional
Jurkat [20] = assay: Cell cycle arrest in human Jurkat cells assessed as accumulation at G0/G1 phase at 20 uM by propidium iodide staining-based FACS flow cytometric analysis (reference value: 52.59%); assay type: functional
Jurkat [21] = assay: Induction of apoptosis in human Jurkat cells assessed as caspase 3/7 activation at 20 uM after overnight incubation by luminescence assay; assay type: functional, cell-based
Jurkat [22] = assay: Cell cycle arrest in human Jurkat cells assessed at 20 uM by propidium iodide staining-based FACS flow cytometric analysis; assay type: functional

Row | SMILES | IC50 [1] | IC50 (SW480) | IC50 (SK-OV-3) | IC50 (HeLa) | IC50 (JIYOYE) | IC50 (K562) | IC50 (Jurkat [2]) | also measured
1 | COC(=O)[C@]12CCC(C)(C)C[C@H]1[C@H]1C(=O)C[C@@H]3[C@@]4(C)CC=C(B5OC(C)(C)C(C)(C)O5)C(C)(C)[C@@H]4CC[C@@]3(C)[C@]1(C)CC2 | > 50 µM | > 50 µM | > 50 µM | > 50 µM | > 50 µM | > 50 µM | > 50 µM | 
2 | CC1(C)CC[C@]2(C#N)CC[C@]3(C)C(=CC[C@@H]4[C@@]5(C)CC=C(B6OC(C)(C)C(C)(C)O6)C(C)(C)[C@@H]5CC[C@]43C)[C@@H]2C1 | > 50 µM | > 50 µM | > 50 µM | > 50 µM | > 50 µM | > 50 µM | > 50 µM | 
3 | COC(=O)CNC(=O)[C@]12CCC(C)(C)C[C@H]1C1=CC[C@@H]3[C@@]4(C)CC=C(B5OC(C)(C)C(C)(C)O5)C(C)(C)[C@@H]4CC[C@@]3(C)[C@]1(C)CC2 | > 50 µM | > 50 µM | > 50 µM | > 50 µM | > 50 µM | > 50 µM | > 50 µM | 
4 | CC(C)C[C@@H](C=O)NC(=O)[C@H](CC(C)C)NC(=O)[C@H](CC(C)C)NC(=O)OCc1ccccc1 (Cbz-Leu-Leu-Leu-aldehyde) |  |  |  |  |  |  |  | Activity (Jurkat [3]): < 20%; Activity (Jurkat [4]): < 20%
5 | COC(=O)[C@]12CCC(C)(C)C[C@H]1[C@H]1C(=O)C=C3[C@@]4(C)CC=C(B5OC(C)(C)C(C)(C)O5)C(C)(C)[C@@H]4CC[C@@]3(C)[C@]1(C)CC2 | > 50 µM | > 50 µM | > 50 µM | > 50 µM | > 50 µM | > 50 µM | > 50 µM | 
6 | COC(=O)[C@H](C)NC(=O)[C@]12CCC(C)(C)C[C@H]1C1=CC[C@@H]3[C@@]4(C)CC=C(B5OC(C)(C)C(C)(C)O5)C(C)(C)[C@@H]4CC[C@@]3(C)[C@]1(C)CC2 | > 50 µM | > 50 µM | > 50 µM | > 50 µM | > 50 µM | > 50 µM | > 50 µM | 
7 | CC1(C)CC[C@]2(C(=O)O)CC[C@]3(C)C(=CC[C@@H]4[C@@]5(C)CC=C(B6OC(C)(C)C(C)(C)O6)C(C)(C)[C@@H]5CC[C@]43C)[C@@H]2C1 | > 50 µM | > 50 µM | > 50 µM | > 50 µM | > 50 µM | > 50 µM | > 50 µM | 
8 | CC1(C)CC[C@]2(C(=O)NCC(=O)O)CC[C@]3(C)C(=CC[C@@H]4[C@@]5(C)CC=C(B6OC(C)(C)C(C)(C)O6)C(C)(C)[C@@H]5CC[C@]43C)[C@@H]2C1 | > 50 µM | 17.9 µM | 15.4 µM | 28 µM | 13.4 µM | 18.2 µM | 15.5 µM | inhibition (Jurkat [5]): Active; inhibition (Jurkat [6]): Active; Activity (Jurkat [7]): 25%; Activity (Jurkat [8]): 51.4%; Activity (Jurkat [9]): 84.1%; Activity (Jurkat [10]): 85.3%; Activity (Jurkat [11]): 59.3%; Activity (Jurkat [12]): 64%; Activity (Jurkat [13]): 83.6%; Activity (Jurkat [14]): 19.81%; Activity (Jurkat [15]): 13.22%; Activity (Jurkat [16]): 3.73%; Activity (Jurkat [17]): 13.79%; Activity (Jurkat [18]): 10.6%; Activity (Jurkat [19]): 13.27%; Activity (Jurkat [20]): 82.2%; Activity (Jurkat [21]): Active
9 | COC(=O)[C@]12CCC(C)(C)C[C@H]1C1=CC[C@@H]3[C@@]4(C)CC=C(B5OC(C)(C)C(C)(C)O5)C(C)(C)[C@@H]4CC[C@@]3(C)[C@]1(C)CC2 | > 50 µM | > 50 µM | > 50 µM | > 50 µM | > 50 µM | > 50 µM | > 50 µM | 
10 | CC1(C)CC[C@]2(C(N)=O)CC[C@]3(C)C(=CC[C@@H]4[C@@]5(C)CC=C(B6OC(C)(C)C(C)(C)O6)C(C)(C)[C@@H]5CC[C@]43C)[C@@H]2C1 | > 50 µM | > 50 µM | > 50 µM | 34.7 µM | 8.4 µM | 8.3 µM | 21.6 µM | Activity (Jurkat [8]): 72.5%; Activity (Jurkat [9]): 77.9%; Activity (Jurkat [10]): 81.6%; Activity (Jurkat [11]): 85.6%; Activity (Jurkat [12]): 92.4%; Activity (Jurkat [13]): 95.8%; Activity (Jurkat [22]): inactive; Activity (Jurkat [21]): Active
11 | C[C@H](NC(=O)[C@]12CCC(C)(C)C[C@H]1C1=CC[C@@H]3[C@@]4(C)CC=C(B5OC(C)(C)C(C)(C)O5)C(C)(C)[C@@H]4CC[C@@]3(C)[C@]1(C)CC2)C(=O)O | > 50 µM | 28.7 µM | 31.2 µM | 30.5 µM | 19.4 µM | 20.1 µM | 21.4 µM | inhibition (Jurkat [5]): Active; inhibition (Jurkat [6]): Active; Activity (Jurkat [7]): 37%; Activity (Jurkat [8]): 50.8%; Activity (Jurkat [9]): 70.7%; Activity (Jurkat [10]): 85.1%; Activity (Jurkat [11]): 47.2%; Activity (Jurkat [12]): 84.3%; Activity (Jurkat [13]): 91.7%; Activity (Jurkat [14]): 16.33%; Activity (Jurkat [15]): 13.67%; Activity (Jurkat [16]): 5.37%; Activity (Jurkat [17]): 15.82%; Activity (Jurkat [18]): 12.19%; Activity (Jurkat [19]): 14.24%; Activity (Jurkat [20]): 58.78%; Activity (Jurkat [21]): Active
12 | COC(=O)[C@]12CCC(C)(C)C[C@H]1[C@H]1/C(=N\O)C[C@@H]3[C@@]4(C)CC=C(B5OC(C)(C)C(C)(C)O5)C(C)(C)[C@@H]4CC[C@@]3(C)[C@]1(C)CC2 | > 50 µM | > 50 µM | > 50 µM | > 50 µM | > 50 µM | > 50 µM | > 50 µM | 
